For this test, the target named is T1, tomato EIN2-ETR1 complex (Solanum lycopersicum, UniProt Q41342).
T1 construct: made in house; host or cells: E. coli BL21(DE3) with pRARE (LeEIN2 fragment); E. coli (LeETR1)
T1 sequence (Q41342 1-754): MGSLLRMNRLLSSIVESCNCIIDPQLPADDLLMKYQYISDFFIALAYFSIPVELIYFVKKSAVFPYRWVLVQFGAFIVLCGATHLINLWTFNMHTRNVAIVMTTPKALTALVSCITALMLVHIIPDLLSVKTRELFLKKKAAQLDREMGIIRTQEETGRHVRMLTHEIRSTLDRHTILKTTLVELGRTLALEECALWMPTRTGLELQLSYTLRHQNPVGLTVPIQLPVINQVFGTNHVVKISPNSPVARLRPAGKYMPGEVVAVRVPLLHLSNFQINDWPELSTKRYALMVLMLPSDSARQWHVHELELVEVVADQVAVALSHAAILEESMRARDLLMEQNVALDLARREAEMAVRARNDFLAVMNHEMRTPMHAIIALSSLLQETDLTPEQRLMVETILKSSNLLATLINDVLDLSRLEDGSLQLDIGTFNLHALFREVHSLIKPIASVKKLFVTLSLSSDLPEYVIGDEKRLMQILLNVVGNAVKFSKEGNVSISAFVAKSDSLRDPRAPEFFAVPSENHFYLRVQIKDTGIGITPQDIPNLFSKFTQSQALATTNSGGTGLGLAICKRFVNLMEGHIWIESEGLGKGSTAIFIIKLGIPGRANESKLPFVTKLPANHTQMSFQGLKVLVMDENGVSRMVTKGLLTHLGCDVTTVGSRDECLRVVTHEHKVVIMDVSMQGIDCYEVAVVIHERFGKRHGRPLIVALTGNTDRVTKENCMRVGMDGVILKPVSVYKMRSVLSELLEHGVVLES
Description: FRET assay of LeEIN2-LeETR1 complex formation. The format is biochemical. The source says: For this purpose, we made use of a fluorescence resonance energy transfer (FRET)-based in vitro assay, originally established for the respective Arabidopsis signaling proteins. Recombinant ethylene proteins LeETR1 and LeEIN2^462–1316 were labeled with fluorescent Alexa dyes[36] as described in the Methods section. LeETR1 was labeled with Alexa Fluor 488, while LeEIN2^462–1316 was labeled with Alexa Fluor 568. As the emission spectrum of the donor fluorophore partially overlaps with the excitation spectrum of the acceptor fluorophore, the dyes form a FRET pair and energy transfer from the donor to the acceptor fluorophore is possible when both probes get in close proximity. […] Formation of the complex is monitored by FRET from the donor molecule Alexa Fluor 488 to the acceptor molecule Alexa Fluor 568. Processes or molecules that prevent complex formation result in a reduced FRET from the donor to the acceptor, which is detected as reduced acceptor fluorescence at the emission maximum.
Quantitative analysis of inhibitory peptides on ETR1-EIN2 complex by FRET
For the FRET assay, recombinant LeETR1 was labeled with Alexa Fluor 488 succinimidyl-ester and LeEIN2^462–1316 was labeled with Alexa Fluor 568 succinimidyl-ester (both Life Technologies) in a buffer containing 50 mM potassium phosphate pH 8.0, 300 mM NaCl and 5% (v/v) glycerol following manufacturer’s protocol (MolecularProbes Protein Labeling Kit). Labeled proteins were transferred in FRET buffer containing 50 mM Tris-HCl pH 8.0, 300 mM NaCl, 0.05% (v/v) Tween 20, 5% (v/v) glycerol and mixed at a final concentration of 3.0 μM each. […] The FRET-based binding assay was carried out in 384-well microplates using an Infinite M200 Pro microplate reader (Tecan) at 455 nm excitation wavelength. Emission spectra were detected between 565 nm to 645 nm. FRET efficiencies were calculated from the maximal emission in the absence and in the presence of the supplied peptides and the half maximal inhibitor concentration IC50 was calculated as previously described.

“Also recorded” adds a separate entry of the source.

Regarding `CC(C)C[C@H](NC(=O)[C@H](CCCNC(=N)N)NC(=O)[C@H](CCCNC(=N)N)NC(=O)[C@H](CCCCN)NC(=O)[C@H](Cc1ccc(O)cc1)NC(=O)[C@H](CCCNC(=N)N)NC(=O)[C@H](CCCCN)NC(=O)[C@@H](N)CC(C)C)C(N)=O` [NOP-1, LKRYKRRL-NH2], the “FRET efficiency (of the value observed in the absence of NOP-1)” value (100 μM NOP-1, LeETR1-Alexa Fluor 488 and LeEIN2^462–1316-Alexa Fluor 568, 3 μM each, 50 mM Tris-HCl pH 8.0, 300 mM NaCl, 0.05% Tween 20, 5% glycerol, excitation 455 nm, emission 565–645 nm) is given as “about 9%”. For the same compound, the “effect on tomato EIN2-ETR1 complex formation” value (FRET assay, 100 μM peptide where stated, LeETR1-Alexa Fluor 488 and LeEIN2-Alexa Fluor 568, 3 μM each) is on record as “pronounced inhibition in FRET efficiency; also recorded: leads to a reduced FRET from LeETR1-Alexa Fluor 488 to LeEIN2-Alexa Fluor 568; also recorded: able to efficiently disrupt EIN2-ETR1 complex formation in tomato; also recorded: specific disruption of the tomato EIN2-ETR1 complex”.

The record behind these values is publication PMC4967898, “Peptides interfering with protein-protein interactions in the ethylene signaling pathway delay tomato fruit ripening” (Scientific Reports, 2016).
